Measured values taken from patent publication US20250179028A1, “ACRYLAMIDE COMPOUNDS” (NRG THERAPEUTICS LTD, priority 2022, published 2025).
≈ marks a conversion by molar mass, not a printed value. Like-named read-outs stand apart in the source and are kept apart here. Marks after values point to notes of the source that are not given here.

Key:
[1] = tested on: mPTP; test: mPTP activity (Ca2+ retention) assay in isolated rat liver mitochondria; format: biochemical; details: isolated rat liver mitochondria
Summary of the method: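 Freshly isolated female Sprague Dawley rat liver mitochondria were energised with succinate and rotenone in pH 7.4 buffer with Fluo5N, then pre-incubated 10 min at RT with compound (30 μM to 1 nM final) before a 75 μM CaCl2 bolus. The IC50 used 10-min fluorescence, normalised to DMSO and 5 μM cyclosporin A.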

[2] = PBS and FaSSIF solubility; format: physicochemical; details: kinetic from dmso stock
Summary of the method: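 Solubility was measured from 10 mM DMSO stocks diluted into FaSSIF or PBS pH 7.4, in duplicate, then shaken at 1100 rpm for 2 hr at 25 °C. Filtrates were quantified by LC-MS/MS against an internal standard and a known-concentration standard.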

[3] = Hepatocyte clearance assay, rat; format: in vitro ADME; details: cryopreserved primary rat hepatocytes, average value from two experiments, read-out: Rat heps Clint
Summary of the method: (§1)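 Cryopreserved rat or human hepatocytes, 0.5×10^6 viable cells/mL in L-15 medium, incubated with compound at 37 °C; samples to 120 min, duplicate. Parent loss by LC/MS/MS; t½ = 0.693/k from ln-linear regression, converted to CLint in μL/min/1×10^6 cells.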

[4] = Hepatocyte clearance assay, human; format: in vitro ADME; details: cryopreserved primary human hepatocytes, average value from two experiments, read-out: Human heps Clint
Summary of the method: as §1

[5] = average value from multiple experiments (n ≥ 2)
[6] = fasted state simulated intestinal fluid (FaSSIF), fassif, Fasted state simulated intestinal fluid, 2 hr at 25° C., read-out: Solubility FaSSIF
[7] = aqueous buffer, PBS pH 7.4, 2 hr at 25° C., read-out: Solubility PBS (pH 7.4)

**Q.** For CO[C@H]1Cc2ccccc2[C@@H]1NC(=O)/C=C/c1ccc2c(C)n[nH]c2c1 [Example 54, (E)-N-((1S,2S)-2-methoxy-2,3-dihydro-1H-inden-1-yl)-3-(3-methyl-1H-indazol-6-yl)acrylamide], which “mPTP Rat liver pIC50” value [1, 5] is on record?
**A.** 7.6

**Q.** And the solubility at 2 h [2, 6]?
**A.** 22 µM (≈ 7.63 µg/mL)

**Q.** And the hepatocyte CLint at 1 µM [3]?
**A.** 39.4 µL/min/1e6 cells

**Q.** What about the hepatocyte CLint at 1 µM [4] of the same compound?
**A.** 10.8 µL/min/1e6 cells

**Q.** For Cc1c(F)cccc1NC(=O)/C=C/c1ccc2c(c1)NC(=O)C2C (centres unmarked) [Example 8, (E)-N-(3-fluoro-2-methylphenyl)-3-(3-methyl-2-oxoindolin-6-yl)acrylamide], which “mPTP Rat liver pIC50” value [1, 5] is on record?
**A.** 5.9

**Q.** And the solubility at 2 h [2, 7]?
**A.** 33.6 µM (≈ 10.9 µg/mL)

**Q.** What about the solubility at 2 h [2, 6] of the same compound?
**A.** 220 µM (≈ 71.3 µg/mL)

**Q.** What about the hepatocyte CLint at 1 µM [3] of the same compound?
**A.** 46 µL/min/1e6 cells

**Q.** Which results are given for Cc1c(F)cccc1NC(=O)/C=C/c1ccc2c(c1F)NC(=O)C2 [Example 5, (E)-N-(3-fluoro-2-methylphenyl)-3-(7-fluoro-2-oxoindolin-6-yl)acrylamide]?
**A.** mPTP Rat liver pIC50 [1, 5]: 6.7; solubility at 2 h [2, 7]: 6.78 µM (≈ 2.23 µg/mL); solubility at 2 h [2, 6]: 66 µM (≈ 21.7 µg/mL); hepatocyte CLint at 1 µM [3]: 27 µL/min/1e6 cells

**Q.** Which results are given for Cc1n[nH]c2cc(/C=C/C(=O)NC3CCc4ccccc43)ccc12 (centres unmarked) [Example 25, (E)-N-(2,3-dihydro-1H-inden-1-yl)-3-(3-methyl-1H-indazol-6-yl)acrylamide]?
**A.** mPTP Rat liver pIC50 [1, 5]: 6.9; solubility at 2 h [2, 7]: 3.69 µM (≈ 1.17 µg/mL); hepatocyte CLint at 1 µM [3]: 36.3 µL/min/1e6 cells; hepatocyte CLint at 1 µM [4]: 21.8 µL/min/1e6 cells

**Q.** Which “mPTP Rat liver pIC50” value [1, 5] does the source give for Cc1c(F)cccc1NC(=O)/C(F)=C/c1ccc2c(c1)NC(=O)C2 [Example 47, (Z)-2-fluoro-N-(3-fluoro-2-methylphenyl)-3-(2-oxoindolin-6-yl)acrylamide] here?
**A.** 5.9

**Q.** And the solubility at 2 h [2, 7]?
**A.** 0.5 µM (≈ 0.164 µg/mL)

**Q.** What about the hepatocyte CLint at 1 µM [4] of the same compound?
**A.** 4.78 µL/min/1e6 cells

**Q.** What does the source list for Cc1c(F)cccc1NC(=O)/C=C/c1ccc2c(c1)NC(=O)C2 [Example 10, (E)-N-(3-fluoro-2-methylphenyl)-3-(2-oxoindolin-6-yl)acrylamide]?
**A.** mPTP Rat liver pIC50 [1, 5]: 6.7; solubility at 2 h [2, 7]: 4.7 µM (≈ 1.46 µg/mL); solubility at 2 h [2, 6]: 74 µM (≈ 23 µg/mL); hepatocyte CLint at 1 µM [3]: 21.1 µL/min/1e6 cells; hepatocyte CLint at 1 µM [4]: 3.3 µL/min/1e6 cells

**Q.** For Cc1ccc(F)c(C)c1NC(=O)/C=C/c1ccc2c(c1)[nH]c(=O)n2C [Example 30, (E)-N-(3-fluoro-2,6-dimethylphenyl)-3-(1-methyl-2-oxo-2,3-dihydro-1H-benzo[d]imidazol-5-yl)acrylamide], which “mPTP Rat liver pIC50” value [1, 5] is on record?
**A.** 7.4

**Q.** And the solubility at 2 h [2, 7]?
**A.** 5.73 µM (≈ 1.94 µg/mL)

**Q.** What about the solubility at 2 h [2, 6] of the same compound?
**A.** 135 µM (≈ 46 µg/mL)

**Q.** And the hepatocyte CLint at 1 µM [3]?
**A.** 12.1 µL/min/1e6 cells

**Q.** What about the hepatocyte CLint at 1 µM [4] of the same compound?
**A.** 18.1 µL/min/1e6 cells

**Q.** With CO[C@H]1Cc2ccccc2[C@@H]1NC(=O)/C=C/c1ccc2c(F)n[nH]c2c1 [Example 73, (E)-3-(3-fluoro-1H-indazol-6-yl)-N-((1S,2S)-2-methoxy-2,3-dihydro-1H-Inden-1-yl)acrylamide] as the compound, how does the “mPTP Rat liver pIC50” value [1, 5] read?
**A.** 8.1

**Q.** What about the solubility at 2 h [2, 6] of the same compound?
**A.** 37.5 µM (≈ 13.2 µg/mL)

**Q.** What about the hepatocyte CLint at 1 µM [3] of the same compound?
**A.** 73.5 µL/min/1e6 cells

**Q.** What about the hepatocyte CLint at 1 µM [4] of the same compound?
**A.** 7.7 µL/min/1e6 cells

**Q.** What does the source list for Cc1c(F)cccc1NC(=O)/C=C/c1ccc2c(c1)[nH]c(=O)n2C1CC1 [Example 23, (E)-3-(1-cyclopropyl-2-oxo-2,3-dihydro-1H-benzo[d]imidazol-5-yl)-N-(3-fluoro-2-methylphenyl)acrylamide]?
**A.** mPTP Rat liver pIC50 [1, 5]: 6.6; solubility at 2 h [2, 7]: 6.13 µM (≈ 2.15 µg/mL); hepatocyte CLint at 1 µM [3]: 35.7 µL/min/1e6 cells; hepatocyte CLint at 1 µM [4]: 17.4 µL/min/1e6 cells

**Q.** For Cc1c(F)cccc1NC(=O)/C=C/c1ccc2cn[nH]c2c1 [Comparative Example 1, (E)-N-(2-methyl-3-fluorophenyl)-3-(1H-indazol-6-yl)acrylamide, reference compound], which “mPTP Rat liver pIC50” value ([1]; average value from a larger number of experiments) is on record?
**A.** 7.8***

**Q.** What about the “mPTP Rat liver pIC50” value [1, 5] of the same compound?
**A.** 8.0

**Q.** And the solubility at 2 h [2, 7]?
**A.** 0.9 µM (≈ 0.266 µg/mL)

**Q.** And the solubility at 2 h [2, 6]?
**A.** 4 µM (≈ 1.18 µg/mL)

**Q.** And the hepatocyte CLint at 1 µM [3]?
**A.** 89 µL/min/1e6 cells

**Q.** And the hepatocyte CLint at 1 µM [4]?
**A.** 13 µL/min/1e6 cells

**Q.** With Cc1c(F)cccc1NC(=O)/C=C/c1ccc2oc(=O)[nH]c2c1 [Example 6, (E)-N-(3-fluoro-2-methylphenyl)-3-(2-oxo-2,3-dihydrobenzo[d]oxazol-5-yl)acrylamide] as the compound, how does the “mPTP Rat liver pIC50” value [1, 5] read?
**A.** 6.8

**Q.** What about the solubility at 2 h [2, 7] of the same compound?
**A.** 3.71 µM (≈ 1.16 µg/mL)

**Q.** What about the solubility at 2 h [2, 6] of the same compound?
**A.** 16 µM (≈ 5 µg/mL)

**Q.** What about the hepatocyte CLint at 1 µM [3] of the same compound?
**A.** 53.3 µL/min/1e6 cells

**Q.** What about the hepatocyte CLint at 1 µM [4] of the same compound?
**A.** < 3 µL/min/1e6 cells

**Q.** Which results are given for CCn1c(=O)[nH]c2cc(/C=C/C(=O)Nc3cccc(F)c3C)ccc21 [Example 22, (E)-3-(1-ethyl-2-oxo-2,3-dihydro-1H-benzo[d]imidazol-5-yl)-N-(3-fluoro-2-methylphenyl)acrylamide]?
**A.** mPTP Rat liver pIC50 [1, 5]: 6.6; solubility at 2 h [2, 7]: 0.4 µM (≈ 0.136 µg/mL); hepatocyte CLint at 1 µM [3]: 26.1 µL/min/1e6 cells; hepatocyte CLint at 1 µM [4]: 16.2 µL/min/1e6 cells

**Q.** What does the source list for Cc1cccc(C)c1NC(=O)/C=C/c1ccc2c(c1)NC(=O)C2 [Example 19, (E)-N-(2,6-dimethylphenyl)-3-(2-oxoindolin-6-yl)acrylamide]?
**A.** mPTP Rat liver pIC50 [1, 5]: 6.2; solubility at 2 h [2, 7]: 134 µM (≈ 41.1 µg/mL); solubility at 2 h [2, 6]: 196 µM (≈ 60.2 µg/mL); hepatocyte CLint at 1 µM [3]: 9.1 µL/min/1e6 cells; hepatocyte CLint at 1 µM [4]: 4.02 µL/min/1e6 cells

**Q.** Which “mPTP Rat liver pIC50” value [1, 5] does the source give for Cc1c(F)cccc1NC(=O)/C=C/c1ccc2c(c1)[nH]c(=O)n2C [Example 7, (E)-N-(3-fluoro-2-methylphenyl)-3-(1-methyl-2-oxo-2,3-dihydro-1H-benzo[d]imidazol-5-yl)acrylamide] here?
**A.** 6.8

**Q.** What about the solubility at 2 h [2, 7] of the same compound?
**A.** 1.4 µM (≈ 0.455 µg/mL)

**Q.** And the solubility at 2 h [2, 6]?
**A.** 22.5 µM (≈ 7.32 µg/mL)

**Q.** What about the hepatocyte CLint at 1 µM [3] of the same compound?
**A.** 27 µL/min/1e6 cells

**Q.** And the hepatocyte CLint at 1 µM [4]?
**A.** 7.63 µL/min/1e6 cells
